One data set deals with AAV-HBV. Kind of data set: AAV-HBV mouse model, serum HBV biomarkers. The format is in vivo. The settings on record: Compound 5 20 mg/kg QD, p.o., after 42 days of treatment. An excerpt:
4-week old male C57BL/6 mice, specific pathogen free, were purchased from Shanghai Laboratory Animal Center of Chinese Academy of Sciences (SLAC) and housed in an animal care facility in individually ventilated cages under controlled temperature and light conditions following the Institutional Animal Care guidelines. AAV-HBV virus was purchased from Beijing FivePlus Molecular Medicine Institute (Beijing, China). This recombinant virus carries 1.3 copies of the HBV genome, which was packaged in AAV serotype 8 (AAV8) capsids. C57BL/6 mice were injected with 200 μL of recombinant virus, diluted in saline buffer, through tail vein injection. After 3-4 weeks, animals were bled to monitor HBV genomic DNA and surface antigen (HBsAg) in serum, and then were randomly grouped according to these HBV biomarkers.
Serum HBsAg was measured using CLIA kits (Autobio Diagnostics Co., Ltd, Zhengzhou, China) according to the manufacturer's instructions. The lower limit of detection (LLOQ) for HBsAg was 0.05 IU/mL. 500-fold dilution of serum was used to obtain values within the linear range of standard curves. Serum HBV DNA was extracted using a MagNA Pure 96 DNA and Viral NA Small Volume Kit (Roche) following the manufacturer's instructions. The DNA samples were analyzed by real-time quantitative PCR (qPCR) using a HBV-specific primer and probe set for specific amplification and detection of a 128 bp HBV genome region from the nucleotide 2969 to 3096. The sequences of the primers and probe are shown as follows: […]
Anti-HBs antibody was examined in mouse serum using the anti-HBs CLIA kit (Antobio, Zhengzhou, China) according to the manufacturer's instruction with modification. ˜15 μL of the diluted (1:3) mouse serum samples were thawed at room temperature for 10 mins. 6 μL of sample was further diluted in 30 μL of PBS to make the final dilution 1:18 for the antibody test. Standard curve were prepared with monoclonal mouse antibody Anti-Hepatitis B Virus Surface Antigen (Ad/Ay) antibody [S35] (Abcam ab20402) in diluted Naive mouse serum (1:18 dilution in PBS). 1 μL of 1 mg/ml anti-HBs antibody was added into 500 μL of diluted mouse serum to make standard 1 as final concentration 2000 ng/ml. 50 μL of standard 1 then was added into 150 μL of diluted mouse serum to make standard 2 (1:4 dilution). 7 points standards were required for the test. The final concentration of standard 7 was (0.488 ng/ml). Blank serum was used as background control. 25 μL of diluted serum sample/standards/Blank was transferred into 96-well plate. Samples were incubated at room temperature for 1 hour followed by 3 times washing with 300 μL of PBST. 0.5 mg/ml of Goat anti-mouse IgG Biotinylated (Mabtech 3825-6-250) was diluted into PBS to final concentration 1 μg/ml (1:500 dilution). […] anti-mouse IgG Bio was added into plate, incubated at room temperature for 1 hour followed by 3 times washing with 300 μL of PBST. Streptavidin-HRP (Mabtech 3310-9) was diluted into PBS (1:250). 50 μL of diluted Streptavidin-HRP was incubated at room temperature for 1 hour followed by 3 times washing with 300 μL of PBST. Substrate A and substrate B (AntuBio) were mixed. 50 μL of mixture were added into plated and incubated for 10 mins before subjected to luminescence reading with Envision microplate reader. The lower limit of detection for anti HBsAb was 36 ng/mL. The anti HBsAb results were calculated from Luminescence raw data fitting on the anti HBsAb standard curve by SoftMax Pro (v5.4.1) software.
In Group 01, animals were treated with Vehicle every other day (QOD) for 42 days and served as the placebo control. In Group 02, Compound 4 was dosed once weekly (QW) at 10 mg/kg for 42 days. Compound 5 was dosed once daily (QD) at 20 mg/kg for 42 days alone in Group 03, or in combination with 10 mg/kg of Compound 4 QW in Group 04. All the test articles were administered by oral gavage (PO) with a total dose volume of 10 mL/kg. The 42-day treatment was followed by a 42-day off-treatment period. […]

Data set [1] in a line: Conversion of prodrug into active moiety.
Another data set has as its target T1, human TLR7 (Homo sapiens, UniProt Q9NYK1).
T1 sequence (Q9NYK1 27-1049): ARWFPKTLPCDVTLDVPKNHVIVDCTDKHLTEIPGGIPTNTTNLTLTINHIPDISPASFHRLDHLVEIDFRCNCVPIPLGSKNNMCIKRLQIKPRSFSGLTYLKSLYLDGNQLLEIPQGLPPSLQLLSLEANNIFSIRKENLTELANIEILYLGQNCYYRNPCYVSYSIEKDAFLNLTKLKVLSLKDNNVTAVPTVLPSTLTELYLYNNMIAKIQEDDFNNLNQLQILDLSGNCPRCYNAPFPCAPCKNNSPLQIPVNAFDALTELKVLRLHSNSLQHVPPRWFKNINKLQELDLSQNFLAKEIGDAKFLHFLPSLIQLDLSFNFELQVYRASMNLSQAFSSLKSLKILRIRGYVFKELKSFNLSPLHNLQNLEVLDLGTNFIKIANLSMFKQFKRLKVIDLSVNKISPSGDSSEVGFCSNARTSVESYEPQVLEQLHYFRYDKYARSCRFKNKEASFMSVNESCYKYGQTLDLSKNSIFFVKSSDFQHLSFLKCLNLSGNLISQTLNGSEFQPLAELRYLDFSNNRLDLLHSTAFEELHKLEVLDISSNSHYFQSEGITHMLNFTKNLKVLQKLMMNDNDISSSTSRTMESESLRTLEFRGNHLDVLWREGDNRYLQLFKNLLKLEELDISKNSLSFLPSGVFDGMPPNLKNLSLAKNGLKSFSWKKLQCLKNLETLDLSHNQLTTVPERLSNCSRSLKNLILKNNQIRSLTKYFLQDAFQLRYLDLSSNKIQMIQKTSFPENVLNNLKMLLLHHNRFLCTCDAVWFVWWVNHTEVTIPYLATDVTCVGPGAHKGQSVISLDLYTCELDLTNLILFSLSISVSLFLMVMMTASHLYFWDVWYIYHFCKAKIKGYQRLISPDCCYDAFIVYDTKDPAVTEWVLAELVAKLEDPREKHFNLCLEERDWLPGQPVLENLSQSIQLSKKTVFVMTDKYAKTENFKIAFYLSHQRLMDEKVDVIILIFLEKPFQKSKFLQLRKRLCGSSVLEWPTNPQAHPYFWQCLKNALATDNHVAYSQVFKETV
Kind of data set: HEK293-Blue-hTLR-7 cells assay (SEAP reporter). The format is cell-based. The following applies: active moiety; read-out: potency to active TLR7 in HEK293-hTLR7 assay. The text has this:
HEK293-Blue-hTLR-7 Cells Assay:
A stable HEK293-Blue-hTLR-7 cell line was purchased from InvivoGen (Cat.#: hkb-htlr7, San Diego, Calif., USA). These cells were designed for studying the stimulation of human TLR7 by monitoring the activation of NF-κB. A reporter gene of secreted embryonic alkaline phosphatase (SEAP) was placed under the control of the IFN-β[…]minimal promoter fused to five NF-κB and AP-1-binding sites. SEAP was induced by the activation of NF-κB and AP-1 upon stimulating HEK-Blue hTLR7 cells with TLR7 ligands. SEAP activity in cell culture supernatant was determined using QUANTI-Blue™ kit (Cat.#: rep-qb1, Invivogen, San Diego, Calif., USA) at a wavelength of 640 nm. Such reporter assays have been widely used for evaluation of TLR7 agonism (Tsuneyasu Kaisho and Takashi Tanaka, Trends in Immunology, Volume 29, Issue 7, July 2008, […]; Hiroaki Hemmi et al, Nature Immunology 3, 196-200 (2002).
Specifically, HEK293-Blue-hTLR7 cells were incubated at a density of 250,000˜450,000 cells/mL in a volume of 180 μL in a 96-well plate in Dulbecco's Modified Eagle's medium (DMEM) containing 4.5 g/L glucose, 50 U/mL penicillin, […], […], 2 mM L-glutamine, 10% (v/v) heat-inactivated fetal bovine serum for 24 h. The cells were then incubated with 20 μL of test compound in a serial dilution at 37° C. in a CO2 incubator for 20 hours. Then 20 μL of the supernatant from each well was incubated with 180 μL Quanti-blue substrate solution at 37° C. for 2 hours and the absorbance was measured at 620˜655 nm using a spectrophotometer.

Another data set concerns HBV. The settings on record: HBV infected transgenic mouse or humanized mouse models; cited from earlier work.
Setting [2] is: Example 6, Compound 3 1 mg/kg QOW.
[3] abbreviates: Example 5, Compound 4 10 mg/kg QW.

As for `CCN(C)C(=O)n1c(=O)n(Cc2ccc(Cl)cc2)c2nc([S@@](=N)(=O)CC)nc(N)c21` [Compound 3, 6-Amino-9-[(4-chlorophenyl)methyl]-N-ethyl-2-[S(S)-(ethylsulfonimidoyl)]-N-methyl-8-oxo-purine-7-carboxamide], in the data set on AAV-HBV (setting [2]), the “HBV DNA reduction” value is recorded as “significant reduction” and the HBsAg reduction result is listed as “significant reduction”. Further, in data set [1], the “conversion of prodrug into the active moiety” value (shortened to “conversion”) was “efficiently converted”. For `CC[S@@](=N)(=O)c1nc(N)c2[nH]c(=O)n(Cc3ccc(C)cc3)c2n1` [Compound 4f-A, 6-amino-2-(S(R)-ethylsulfonimidoyl)-9-(p-tolylmethyl)-7H-purin-8-one], on human TLR7, the EC50 was determined as 110 nM.

As for `CC[S@@](=N)(=O)c1nc(N)c2[nH]c(=O)n(Cc3ccc(Cl)cc3)c2n1` [Compound 1e-B], the EC50 at human TLR7 worked out at 85 nM. `CCCN(C)C(=O)n1c(=O)n(Cc2ccc(Cl)cc2)c2nc([S@](=N)(=O)CC)nc(N)c21` [Compound 2, 6-amino-9-[(4-chlorophenyl)methyl]-2-[S(R)-ethylsulfonimidoyl]-N-methyl-8-oxo-N-propyl-purine-7-carboxamide]: the “conversion” value in data set [1] is “efficiently converted”. On to `CCCN(C)C(=O)n1c(=O)n(Cc2ccc(C)cc2)c2nc([S@](=N)(=O)CC)nc(N)c21` [Compound 4, 6-Amino-2-[S(R)-(ethylsulfonimidoyl)]-N-methyl-8-oxo-N-propyl-9-(p-tolylmethyl)purine-7-carboxamide], for which, in the data set on AAV-HBV (setting [3]), the “HBV DNA reduction” value is on record as “significant reduction” and the HBsAg reduction entry is reported as “significant reduction”. The “conversion” value in data set [1] is recorded as “efficiently converted”. Turning to `CCCN(C)C(=O)n1c(=O)n(Cc2ccc(Cl)cc2)c2nc([S@@](=N)(=O)CC)nc(N)c21` [Compound 1, 6-Amino-9-[(4-chlorophenyl)methyl]-2-[S(S)-ethylsulfonimidoyl]-N-methyl-8-oxo-N-propyl-purine-7-carboxamide], the “conversion” value in data set [1] is “efficiently converted”. Regarding `COC(=O)C1=C(C)NC(c2ncc(F)cc2F)=N[C@H]1c1ccc(F)cc1Cl` [Bay 41-4109], the “in vivo efficacy, HBV DNA” value in the data set on HBV is reported as “in vivo efficacy with HBV DNA reduction”.

As to `CC[S@](=N)(=O)c1nc(N)c2[nH]c(=O)n(Cc3ccc(Cl)cc3)c2n1` (single isomer, unassigned) [Compound 1e-A], the EC50 on human TLR7 was 71 nM. Take `CCOC(=O)C1=C(CN2CCN3C(=O)N(CC(C)(C)C(=O)O)C[C@@H]3C2)NC(c2nccs2)=N[C@H]1c1cccc(F)c1C` [Compound 5, 3-[(8aS)-7-[[(4S)-5-ethoxycarbonyl-4-(3-fluoro-2-methyl-phenyl)-2-thiazol-2-yl-1,4-dihydropyrimidin-6-yl]methyl]-3-oxo-5,6,8,8a-tetrahydro-1H-imidazo[1,5-a]pyrazin-2-yl]-2,2-dimethyl-propanoic acid]: in the data set on AAV-HBV (setting [3]), the “HBV DNA reduction” value is given as “significant reduction” and the HBsAg reduction entry was “significant reduction”. For the same compound, in the data set on AAV-HBV (setting [2]), the “HBV DNA reduction” value was “significant reduction” and the HBsAg reduction entry was “significant reduction”.
